13 molecules from ChEMBL document CHEMBL2028040, “Malaria Box” can be followed below.

pEC50, pIC50: −log10 of the molar value.

One data set concerns Leishmania infantum. Briefly: MMV: Inhibition of Leishmania infantum (MHOM/MA/BE/67) in vitro. The data set is classed as functional, organism-based.
Data set [1] deals with Plasmodium falciparum. In words: MMV: Inhibition of Plasmodium falciparum 3D7 (EC50). It is filed as functional, organism-based.
Data set [2] relates to Trypanosoma brucei brucei. In words: MMV: Inhibition of Trypanosoma brucei brucei (Squib 427) (HAT in vitro). The data set is classed as functional, organism-based.
Data set [3] has as its system Trypanosoma brucei rhodesiense. In words: MMV: Inhibition of Trypanosoma brucei rhodesiense (STIB 900) (HAT in vitro). The data set is classed as functional, organism-based.
Data set [4] is described as follows: MMV: Cytotoxicity against human fibroblasts (MRC-5) cells. As to conditions: MRC-5 cells (human fibroblasts).
Another data set deals with Trypanosoma cruzi. In words: MMV: Inhibition of Trypanosoma cruzi (Tulahuen C4 LacZ) (Chagas in vitro). It is filed as functional, organism-based.
Data set [5] has as its system Plasmodium falciparum. Briefly: MMV: Inhibition of Plasmodium falciparum 3D7 at 5uM compound concentration. It is filed as functional.

A word on the pIC50: it is the negative decadic logarithm of the IC50, by convention in mol/L. A higher pIC50 goes with a small IC50. The term pEC50 denotes −log10 of the EC50, conventionally taken in molar units. Lower therefore signals a large EC50. For `Oc1ccc(Br)cc1CN1CCN(Cc2cccc(F)c2)CC1`, the pIC50 was 4.60 in the data set on Leishmania infantum; below 4.49 in data set [2]; 4.78 in data set [3]; below 4.49 in data set [4]; 4.90 in the data set on Trypanosoma cruzi. In the data set with Plasmodium falciparum [1], this molecule showed a pEC50 of 5.99.

In the case of `COc1ccc(C2c3ccc4ccccc4c3Oc3ncn(CCCN(C)C)c(=N)c32)cc1` (stereo not drawn), the pIC50 with Leishmania infantum is 5.99; in data set [2] it was 6.59; in data set [3] it was 6.65; in data set [4], 5.46; with Trypanosoma cruzi, 6.00. For the same molecule, the pEC50 in the data set on Plasmodium falciparum [1] is 5.91.

For the molecule `CCOc1cc(CNC(C)C(O)c2ccccc2)cc(Cl)c1OCC` (stereo not drawn), the pIC50 with Leishmania infantum is 4.78; in data set [2], 4.94; in data set [3], 5.06; in data set [4], below 4.49; with Trypanosoma cruzi, 4.60. In the data set on Plasmodium falciparum [1], this molecule had a pEC50 of 5.91.

Take `Cc1cc(N(C)C)nc(Nc2ccc(NC(=O)Nc3ccccc3)cc2)n1`: the pIC50 is 5.36 in the data set with Leishmania infantum; 5.26 in data set [2]; 5.90 in data set [3]; 4.62 in data set [4]; 5.99 with Trypanosoma cruzi. The pEC50 in the data set on Plasmodium falciparum [1] is 5.94.

Take `COc1cccc(C2(C)Nc3ccccc3-c3nc4ccccc4n32)c1` (stereo not drawn): the pIC50 with Leishmania infantum is below 4.49; in data set [2] it was 4.82; in data set [3], 4.84; in data set [4] it was 4.58; in the data set with Trypanosoma cruzi, 4.87. For the same molecule, in the data set on Plasmodium falciparum [1], the pEC50 was 5.94.

On to `Cc1cccc(-n2ncc3c(O)nc(-n4nc(C)cc4NC(=O)c4cc5ccccc5o4)nc32)c1`, for which the pIC50 is 5.36 with Leishmania infantum; 6.32 in data set [2]; 6.52 in data set [3]; 6.19 in data set [4]; 6.63 in the data set with Trypanosoma cruzi. The same molecule had a pEC50 with Plasmodium falciparum [1] of 6.03.

With `O=C(NC1CCN(Cc2ccccc2)CC1)c1cc2nc(-c3ccc(Cl)s3)cc(C(F)(F)F)n2n1`, the pIC50 with Leishmania infantum was 4.80; in data set [2], below 4.49; in data set [3] it was below 4.49; in data set [4], below 4.49; with Trypanosoma cruzi it was below 4.49. Besides, the pEC50 with Plasmodium falciparum [1] is 6.02.

`Cc1cc(C)cc(Nc2cc(C)nc3nc(C(F)(F)F)nn23)c1`: the pIC50 (in the data set on Leishmania infantum; in data set [2]; in data set [3]; in data set [4]; in the data set with Trypanosoma cruzi) was below 4.49 in each case. In the data set with Plasmodium falciparum [1], the pEC50 is 7.07.

Broadly, the inhibition is the relative decrease from the control value, in per cent. A high value points to strong suppression. For `FC(F)(F)c1ccc(Nc2nnnc3ccccc23)cc1`, the negative logarithm of the IC50 (pIC50) (with Leishmania infantum; in data set [2]; in data set [3]; in data set [4]; with Trypanosoma cruzi) was below 4.49 each time. Also, in the data set on Plasmodium falciparum [5], the inhibition at 5 µM is 77%.

Consider `Cc1c(C)n(Cc2ccc(F)cc2)c2ccc(C(=O)NCc3ccco3)cc12`, for which the pIC50 in the data set with Leishmania infantum was below 4.49; in data set [2], 4.96; in data set [3], 4.81; in data set [4] it was below 4.49; in the data set on Trypanosoma cruzi it was below 4.49. 5 µM produced 52% inhibition with Plasmodium falciparum [5].

`CCCCN(CCCC)S(=O)(=O)c1ccc(NC(=O)c2ccco2)cc1`: the pIC50 was below 4.49 in the data set with Leishmania infantum; below 4.49 in data set [2]; 4.79 in data set [3]; below 4.49 in data set [4]; below 4.49 with Trypanosoma cruzi. The molecule further returned an inhibition at 5 µM with Plasmodium falciparum [5] of 78%.

For `Cc1ccc(CN2CCC(C(=O)Nc3ccc(-c4cc5ccccc5[nH]4)cc3)CC2)o1`, the pIC50 is 4.87 in the data set on Leishmania infantum; 5.48 in data set [2]; 6.01 in data set [3]; 4.80 in data set [4]; 4.80 in the data set with Trypanosoma cruzi. This molecule registered an inhibition at 5 µM with Plasmodium falciparum [5] of 77%.

`CCCC(c1nnnn1C1CCCCC1)N1CCN(C(=O)c2ccco2)CC1` (stereo not drawn): the pIC50 (in the data set on Leishmania infantum; in data set [2]; in data set [3]; in data set [4]; in the data set with Trypanosoma cruzi) was below 4.49 throughout. Also, the inhibition at 5 µM with Plasmodium falciparum [5] was 82%.
